In ChEMBL document CHEMBL4043190 (Bioorg Med Chem Lett, 2017):

Columns and labels:
[1] = Ratio of unbound drug concentration in IL-23/IL-1beta induced C57BL/6J mouse plasma at 30 mg/kg, po to EC50 for JAK2 (unknown origin) assessed as inhibition of EPO-mediated STAT5 phosphorylation; assay type: organism-based; details: in vivo
[2] = test system: Plasma; assay: Unbound drug concentration in IL-23/IL-1beta induced C57BL/6J mouse plasma at 100 mg/kg, po preincubated for 30 mins followed by cytokine addition measured after 3.5 hrs post dose; assay type: ADME, organism-based; details: in vivo
[3] = test system: Plasma; assay: Unbound drug concentration in IL-23/IL-1beta induced C57BL/6J mouse plasma at 70 mg/kg, po preincubated for 30 mins followed by cytokine addition measured after 3.5 hrs post dose; assay type: ADME, organism-based; details: in vivo
[4] = test system: Mus musculus; assay: Antiinflammatory activity in IMQ-induced BALB/c mouse psoriasis model assessed as reduction in ear thickness at 70 mg/kg, po bid for 5 days meausred on day 6; assay type: functional; set-up: scale not given: the % may be the effect or the level left
[5] = target: Cyclin-dependent kinase 9 (Homo sapiens, UniProt P50750); details: 70 nM
[6] = target: Tyrosine-protein kinase JAK1 (Homo sapiens, UniProt P23458); assay: Inhibition of JAK1 (unknown origin)
[7] = Ratio of unbound drug concentration in IL-23/IL-1beta induced C57BL/6J mouse plasma at 100 mg/kg, po to EC50 for JAK2 (unknown origin) assessed as inhibition of EPO-mediated STAT5 phosphorylation; assay type: organism-based; details: in vivo
[8] = Protein binding in rat plasma; assay type: ADME, cell-free; details: read-out: PPB (converted)
[9] = species: Homo sapiens; assay: Selectivity ratio of EC50 for JAK2 (unknown origin) assessed as EPO-induced STAT5 phosphorylation to EC50 for TYK2 (unknown origin) assessed as IL-23-induced STAT3 phosphorylation
[10] = test system: Mus musculus; assay: Antiinflammatory activity in IMQ-induced BALB/c mouse model assessed as reduction in serum IL-17F production at 70 mg/kg, po bid for 5 days; assay type: functional; set-up: scale not given: the % may be the effect or the level left
[11] = test system: Mus musculus; assay: Anti-inflammatory activity in IL-23/IL-1beta induced C57BL/6J mouse assessed as inhibition of IL-17F level in serum at 70 mg/kg, po pretreated for 30 mins followed by cytokine addition measured after 3 hrs by ELISA relative to control; assay type: functional
[12] = test system: Plasma; assay: Unbound drug concentration in IL-23/IL-1beta induced C57BL/6J mouse plasma at 30 mg/kg, po preincubated for 30 mins followed by cytokine addition measured after 3.5 hrs post dose; assay type: ADME, organism-based; details: in vivo
[13] = test system: Mus musculus; assay: Antiinflammatory activity in IMQ-induced BALB/c mouse model assessed as reduction in serum IL-17F production at 30 mg/kg, po bid for 5 days; assay type: functional; set-up: scale not given: the % may be the effect or the level left
[14] = test system: Mus musculus; assay: Antiinflammatory activity in IMQ-induced BALB/c mouse psoriasis model assessed as reduction in ear thickness at 100 mg/kg, po bid for 5 days meausred on day 6; assay type: functional; set-up: scale not given: the % may be the effect or the level left
[15] = Clearance in dog; assay type: ADME, Canis lupus familiaris; details: in vivo

Sequence of Cyclin-dependent kinase 9 (P50750 whole entry): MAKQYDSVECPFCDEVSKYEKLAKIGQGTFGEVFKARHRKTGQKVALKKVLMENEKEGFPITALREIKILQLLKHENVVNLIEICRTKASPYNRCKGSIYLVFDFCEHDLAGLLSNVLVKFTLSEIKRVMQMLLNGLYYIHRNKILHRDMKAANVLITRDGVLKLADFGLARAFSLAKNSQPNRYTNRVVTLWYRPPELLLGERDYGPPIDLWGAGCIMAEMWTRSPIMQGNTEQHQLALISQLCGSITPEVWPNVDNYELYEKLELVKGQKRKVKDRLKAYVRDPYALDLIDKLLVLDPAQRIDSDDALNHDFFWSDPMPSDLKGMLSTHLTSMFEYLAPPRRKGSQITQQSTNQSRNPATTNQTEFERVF
Sequence of Tyrosine-protein kinase JAK1 (P23458 whole entry): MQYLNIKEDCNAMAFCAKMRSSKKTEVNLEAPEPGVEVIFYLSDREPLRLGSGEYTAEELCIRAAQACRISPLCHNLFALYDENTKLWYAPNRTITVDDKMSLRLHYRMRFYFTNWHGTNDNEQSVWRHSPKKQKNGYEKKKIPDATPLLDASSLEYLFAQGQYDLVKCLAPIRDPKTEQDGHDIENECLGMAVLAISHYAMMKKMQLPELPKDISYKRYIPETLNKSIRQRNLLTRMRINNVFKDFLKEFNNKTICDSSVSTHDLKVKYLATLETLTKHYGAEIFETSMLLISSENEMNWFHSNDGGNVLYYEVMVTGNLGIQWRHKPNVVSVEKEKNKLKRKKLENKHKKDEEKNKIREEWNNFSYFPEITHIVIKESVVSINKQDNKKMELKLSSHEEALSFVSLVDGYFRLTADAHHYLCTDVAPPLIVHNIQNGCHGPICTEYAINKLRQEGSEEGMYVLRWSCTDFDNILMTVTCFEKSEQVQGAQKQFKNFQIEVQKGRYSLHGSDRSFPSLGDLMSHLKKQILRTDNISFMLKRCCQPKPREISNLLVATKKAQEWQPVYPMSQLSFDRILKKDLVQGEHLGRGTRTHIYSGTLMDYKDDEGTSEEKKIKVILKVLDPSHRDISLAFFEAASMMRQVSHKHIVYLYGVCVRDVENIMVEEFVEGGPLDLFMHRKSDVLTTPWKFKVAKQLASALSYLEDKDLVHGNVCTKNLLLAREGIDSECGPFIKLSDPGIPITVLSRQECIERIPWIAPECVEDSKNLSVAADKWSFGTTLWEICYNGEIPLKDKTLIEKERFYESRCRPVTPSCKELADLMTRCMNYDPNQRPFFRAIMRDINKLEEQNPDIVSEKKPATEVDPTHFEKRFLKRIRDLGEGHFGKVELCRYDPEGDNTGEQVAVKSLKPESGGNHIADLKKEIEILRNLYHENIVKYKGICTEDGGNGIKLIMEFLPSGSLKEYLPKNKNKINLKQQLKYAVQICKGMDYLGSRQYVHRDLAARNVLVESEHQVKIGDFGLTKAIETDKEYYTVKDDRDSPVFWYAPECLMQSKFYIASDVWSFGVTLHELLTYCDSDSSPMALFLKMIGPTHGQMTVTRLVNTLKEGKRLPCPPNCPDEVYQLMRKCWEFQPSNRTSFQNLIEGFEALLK

Which results are given for Cc1cc(Nc2nccc3nc(-c4c(Cl)cc(C#N)cc4Cl)[nH]c23)ncn1?
Ratio [1]: 0.61; Cp(f) [2]: 2.6 µM; Cp(f) [3]: 1.5 µM; Activity [4]: 78%; inhibition [5]: > 50%; Ki [6]: 24 nM; Ratio [7]: 1.9; fraction unbound [8]: 0.039; Ratio EC50 [9]: 21; Activity [10]: 100%; inhibition in vivo at 70 mg/kg [11]: 72%; Cp(f) [12]: 0.86 µM; Activity [13]: 74%; Activity [14]: 82%; clearance [15]: 3.6 mL/min/kg
